According to PMC10489938, “Developing an Amide-Spacered Triterpenoid Rhodamine Hybrid of Nano-Molar Cytotoxicity Combined with Excellent Tumor Cell/Non-Tumor Cell Selectivity” (Molecules, 2023):
Where two headings read alike, the source gives them in different places.

Columns and labels:
[1] = tested on: A2780 (ovarian carcinoma); assay: SRB cytotoxicity assay, A2780; assay type: cell-based, human; conditions: Homo sapiens, A2780, SRB assay, 72 h of treatment, cut-off 30 μM, read-out: Cytotoxicity (EC50) A2780
Procedure: (§1) Sulforhodamine (SRB) assays were performed to evaluate the cytotoxicity of the compounds. First, the cytotoxicity of the different rhodamines was determined; the results of these assays are compiled in Table 1 and Table 2 and depicted in Figure 1.
(§2) Experimental equipment: as previously described biological assays were performed as previously reported employing cell lines obtained from the Department of Oncology [Martin-Luther-University Halle Wittenberg; they were bought from ATCC [2, 4, 7]]. Rhodamine 101 B, as well as asiatic acid, were obtained from local vendors and used as received.
(§3) For the SRB assay and staining experiments: as previously described.

[2] = tested on: HT29 (colorectal carcinoma); assay: SRB cytotoxicity assay, HT29; assay type: cell-based, human; conditions: Homo sapiens, HT-29, SRB assay, 72 h of treatment, cut-off 30 μM, read-out: Cytotoxicity (EC50) HT29
Procedure: as §1, §2, §3

[3] = SRB cytotoxicity assay, NIH 3T3; assay type: cell-based, murine; conditions: mouse, NIH 3T3 non-malignant fibroblasts, cut-off 30 μM
Procedure: as §1, §2, §3

[4] = tested on: MCF7 (breast adenocarcinoma); assay: SRB cytotoxicity assay, MCF7; assay type: cell-based, human; conditions: Homo sapiens, MCF7, SRB assay, 72 h of treatment, cut-off 30 μM, read-out: Cytotoxicity (EC50) MCF7
Procedure: as §1, §2, §3

[5] = tested on: A375 (melanoma); assay: SRB cytotoxicity assay, A375; assay type: cell-based, human; conditions: Homo sapiens, A-375, SRB assay, 72 h of treatment, cut-off 30 μM, read-out: Cytotoxicity (EC50) A375
Procedure: as §1, §2, §3

[6] = tested on: HeLa (cervical adenocarcinoma); assay: SRB cytotoxicity assay, HeLa; assay type: cell-based, human; conditions: Homo sapiens, HeLa, SRB assay, 72 h of treatment, cut-off 30 μM, read-out: Cytotoxicity (EC50) HeLa
Procedure: as §1, §2, §3

COc1cccc2c1C(=O)c1c(O)c3c(c(O)c1C2=O)C[C@@](O)(C(=O)CO)C[C@@H]3O[C@H]1C[C@H](N)[C@H](O)[C@H](C)O1 [DX, doxorubicin, reference compound]
EC50 ([1]; Table 1): 20 ± 10 nM | EC50 ([2]; Table 1): 900 ± 200 nM | EC50 at 72 h ([3]; Table 1, 72 h of treatment): 11900 ± 1300 nM | EC50 ([4]; Table 1): 1100 ± 300 nM

CCCN(CCC)c1ccc2c(-c3ccccc3C(=O)O)c3ccc(=[N+](CCC)CCC)cc-3oc2c1 [Rh3, reference compound]
EC50 ([5]; Table 1): 8200 ± 200 nM | EC50 ([1]; Table 1): 6700 ± 700 nM | EC50 ([2]; Table 1): 9300 ± 400 nM | EC50 ([6]; Table 1): 8000 ± 700 nM | EC50 at 72 h ([3]; Table 1, 72 h of treatment): 12000 ± 700 nM | EC50 ([4]; Table 1): 6400 ± 400 nM

CCCCN(CCCC)c1ccc2c(-c3ccccc3C(=O)O)c3ccc(=[N+](CCCC)CCCC)cc-3oc2c1 [Rh4, reference compound]
EC50 ([5]; Table 1): 4300 ± 100 nM | EC50 ([1]; Table 1): 3400 ± 100 nM | EC50 ([2]; Table 1): 4900 ± 300 nM | EC50 ([6]; Table 1): 4300 ± 300 nM | EC50 at 72 h ([3]; Table 1, 72 h of treatment): 4300 ± 100 nM | EC50 ([4]; Table 1): 3080 ± 60 nM

O=C(O)c1ccccc1C1=c2cc3c4c(c2Oc2c1cc1c5c2CCCN5CCC1)CCC[N+]=4CCC3 [Rh5, rhodamine 101, reference compound]
EC50 ([5]; Table 1): 11200 ± 1800 nM | EC50 ([1]; Table 1): 8000 ± 1500 nM | EC50 ([2]; Table 1): 18500 ± 1800 nM | EC50 ([6]; Table 1): 11800 ± 1100 nM | EC50 at 72 h ([3]; Table 1, 72 h of treatment): 11900 ± 1300 nM | EC50 ([4]; Table 1): 8200 ± 800 nM

CC(=O)OC[C@@]1(C)C2CC[C@]3(C)[C@H](CC=C4[C@@H]5[C@@H](C)[C@H](C)CC[C@]5(C(=O)N5CCN(C(=O)c6ccccc6-c6c7ccc(=[N+](C)C)cc-7oc7cc(N(C)C)ccc67)CC5)CC[C@]43C)[C@@]2(C)C[C@@H](OC(C)=O)[C@@H]1OC(C)=O (stereo partly drawn) [compound 6, (2α,3β,4α)-9-[2-{[4-(2,3,23-Tris(acetyloxy)-urs-12-en-28-oyl)-Piperazinyl]Carbonyl}Phenyl]-3,6-bis(Dimethylamino)-Xanthylium Chloride]
EC50 ([5]; Table 2): 150 ± 8 nM | EC50 ([1]; Table 2): 43 ± 8 nM | EC50 ([2]; Table 2): 230 ± 80 nM | EC50 ([6]; Table 2): 700 ± 200 nM | EC50 at 72 h ([3]; Table 2, 72 h of treatment): 550 ± 60 nM | EC50 ([4]; Table 2): 150 ± 30 nM

CCN(CC)c1ccc2c(-c3ccccc3C(=O)N3CCN(C(=O)[C@]45CC[C@@H](C)[C@H](C)[C@H]4C4=CC[C@@H]6[C@@]7(C)C[C@@H](OC(C)=O)[C@H](OC(C)=O)[C@@](C)(COC(C)=O)C7CC[C@@]6(C)[C@]4(C)CC5)CC3)c3ccc(=[N+](CC)CC)cc-3oc2c1 (stereo partly drawn) [compound 7]
EC50 ([5]; Table 2): 27 ± 9 nM | EC50 ([1]; Table 2): 5.6 ± 0.6 nM | EC50 ([2]; Table 2): 26 ± 9 nM | EC50 ([6]; Table 2): 200 ± 100 nM | EC50 at 72 h ([3]; Table 2, 72 h of treatment): 330 ± 80 nM | EC50 ([4]; Table 2): 34 ± 9 nM

CCCN(CCC)c1ccc2c(-c3ccccc3C(=O)N3CCN(C(=O)[C@]45CC[C@@H](C)[C@H](C)[C@H]4C4=CC[C@@H]6[C@@]7(C)C[C@@H](OC(C)=O)[C@H](OC(C)=O)[C@@](C)(COC(C)=O)C7CC[C@@]6(C)[C@]4(C)CC5)CC3)c3ccc(=[N+](CCC)CCC)cc-3oc2c1 (stereo partly drawn) [compound 8, (2α,3β,4α)-9-[2-{[4-(2,3,23-Tris(Acetyloxy)-urs-12-en-28-oyl)-Piperazinyl]Carbonyl}Phenyl]-3,6-Bis(Dipropylamino)-Xanthylium Chloride]
EC50 ([5]; Table 2): 32 ± 3 nM | EC50 ([1]; Table 2): 5.5 ± 0.5 nM | EC50 ([2]; Table 2): 31 ± 7 nM | EC50 ([6]; Table 2): 160 ± 50 nM | EC50 at 72 h ([3]; Table 2, 72 h of treatment): 440 ± 90 nM | EC50 ([4]; Table 2): 34 ± 5 nM

CCCCN(CCCC)c1ccc2c(-c3ccccc3C(=O)N3CCN(C(=O)[C@]45CC[C@@H](C)[C@H](C)[C@H]4C4=CC[C@@H]6[C@@]7(C)C[C@@H](OC(C)=O)[C@H](OC(C)=O)[C@@](C)(COC(C)=O)C7CC[C@@]6(C)[C@]4(C)CC5)CC3)c3ccc(=[N+](CCCC)CCCC)cc-3oc2c1 (stereo partly drawn) [compound 9, (2α,3β,4α)-9-[2-{[4-(2,3,23-Tris(Acetyloxy)-urs-12-en-28-oyl)-Piperazinyl]Carbonyl}Phenyl]-3,6-Bis(Dibutylamino)-Xanthylium Chloride]
EC50 ([5]; Table 2): 16 ± 3 nM | EC50 ([1]; Table 2): 4.9 ± 0.7 nM | EC50 ([2]; Table 2): 26 ± 8 nM | EC50 ([6]; Table 2): 210 ± 50 nM | EC50 at 72 h ([3]; Table 2, 72 h of treatment): 400 ± 100 nM | EC50 ([4]; Table 2): 50 ± 10 nM

CC(=O)OC[C@@]1(C)C2CC[C@]3(C)[C@H](CC=C4[C@@H]5[C@@H](C)[C@H](C)CC[C@]5(C(=O)N5CCN(C(=O)c6ccccc6C6=c7cc8c9c(c7Oc7c6cc6c%10c7CCCN%10CCC6)CCC[N+]=9CCC8)CC5)CC[C@]43C)[C@@]2(C)C[C@@H](OC(C)=O)[C@@H]1OC(C)=O (stereo partly drawn) [compound 10]
EC50 ([5]; Table 2): 45 ± 4 nM | EC50 ([1]; Table 2): 9 ± 2 nM | EC50 ([2]; Table 2): 50 ± 20 nM | EC50 ([6]; Table 2): 220 ± 50 nM | EC50 at 72 h ([3]; Table 2, 72 h of treatment): 250 ± 50 nM | EC50 ([4]; Table 2): 50 ± 10 nM

CC(=O)OC[C@@]1(C)C2CC[C@]3(C)[C@H](CC=C4[C@@H]5[C@@H](C)[C@H](C)CC[C@]5(C(=O)N5CCCN(C(=O)c6ccccc6-c6c7ccc(=[N+](C)C)cc-7oc7cc(N(C)C)ccc67)CC5)CC[C@]43C)[C@@]2(C)C[C@@H](OC(C)=O)[C@@H]1OC(C)=O (stereo partly drawn) [compound 11, (2α,3β,4α)-9-[2-{[4-(2α,3β,23-Tris(Acetyloxy)-urs-12-en-28-oyl)-Homopiperazinyl]Carbonyl}Phenyl]-3,6-Bis(Dimethylamino)-Xanthylium Chloride]
EC50 ([5]; Table 2): 39 ± 3 nM | EC50 ([1]; Table 2): 3.2 ± 0.4 nM | EC50 ([2]; Table 2): 20 ± 10 nM | EC50 ([6]; Table 2): 400 ± 100 nM | EC50 at 72 h ([3]; Table 2, 72 h of treatment): 300 ± 100 nM | EC50 ([4]; Table 2): 28 ± 5 nM

CCN(CC)c1ccc2c(-c3ccccc3C(=O)N3CCCN(C(=O)[C@]45CC[C@@H](C)[C@H](C)[C@H]4C4=CC[C@@H]6[C@@]7(C)C[C@@H](OC(C)=O)[C@H](OC(C)=O)[C@@](C)(COC(C)=O)C7CC[C@@]6(C)[C@]4(C)CC5)CC3)c3ccc(=[N+](CC)CC)cc-3oc2c1 (stereo partly drawn) [compound 12, (2α,3β,4α)-9-[2-{[4-(2α,3β,23-Tris(Acetyloxy)-urs-12-en-28-oyl)-Homopiperazinyl]Carbonyl}Phenyl]-3,6-Bis(Diethylamino)-Xanthylium Chloride]
EC50 ([1]; Table 2): 0.8 ± 0.1 nM | EC50 ([2]; Table 2): 5.5 ± 2.3 nM | EC50 ([6]; Table 2): 17.7 ± 4.9 nM | EC50 at 72 h ([3]; Table 2, 72 h of treatment): 65 ± 26.2 nM | EC50 ([4]; Table 2): 7.1 ± 2.1 nM

CCCN(CCC)c1ccc2c(-c3ccccc3C(=O)N3CCCN(C(=O)[C@]45CC[C@@H](C)[C@H](C)[C@H]4C4=CC[C@@H]6[C@@]7(C)C[C@@H](OC(C)=O)[C@H](OC(C)=O)[C@@](C)(COC(C)=O)C7CC[C@@]6(C)[C@]4(C)CC5)CC3)c3ccc(=[N+](CCC)CCC)cc-3oc2c1 (stereo partly drawn) [compound 13, (2α,3β,4α)-9-[2-{[4-(2α,3β,23-Tris(Acetyloxy)-urs-12-en-28-oyl)-Homopiperazinyl]Carbonyl}Phenyl]-3,6-Bis(Dipropylamino)-Xanthylium Chloride]
EC50 ([5]; Table 2): 3.9 ± 0.6 nM | EC50 ([1]; Table 2): 1.1 ± 0.1 nM | EC50 ([2]; Table 2): 6 ± 1 nM | EC50 ([6]; Table 2): 41 ± 9 nM | EC50 at 72 h ([3]; Table 2, 72 h of treatment): 100 ± 50 nM | EC50 ([4]; Table 2): 10 ± 1 nM

CCCCN(CCCC)c1ccc2c(-c3ccccc3C(=O)N3CCCN(C(=O)[C@]45CC[C@@H](C)[C@H](C)[C@H]4C4=CC[C@@H]6[C@@]7(C)C[C@@H](OC(C)=O)[C@H](OC(C)=O)[C@@](C)(COC(C)=O)C7CC[C@@]6(C)[C@]4(C)CC5)CC3)c3ccc(=[N+](CCCC)CCCC)cc-3oc2c1 (stereo partly drawn) [compound 14, (2α,3β,4α)-9-[2-{[4-(2α,3β,23-Tris(Acetyloxy)-urs-12-en-28-oyl)-Homopiperazinyl]Carbonyl}Phenyl]-3,6-Bis(Dibutylamino)-Xanthylium Chloride]
EC50 ([5]; Table 2): 14 ± 1 nM | EC50 ([1]; Table 2): 4.5 ± 0.4 nM | EC50 ([2]; Table 2): 25 ± 5 nM | EC50 ([6]; Table 2): 150 ± 50 nM | EC50 at 72 h ([3]; Table 2, 72 h of treatment): 200 ± 100 nM | EC50 ([4]; Table 2): 49 ± 6 nM

CC(=O)OC[C@@]1(C)C2CC[C@]3(C)[C@H](CC=C4[C@@H]5[C@@H](C)[C@H](C)CC[C@]5(C(=O)N5CCCN(C(=O)c6ccccc6C6=c7cc8c9c(c7Oc7c6cc6c%10c7CCCN%10CCC6)CCC[N+]=9CCC8)CC5)CC[C@]43C)[C@@]2(C)C[C@@H](OC(C)=O)[C@@H]1OC(C)=O (stereo partly drawn) [compound 15]
EC50 ([5]; Table 2): 8 ± 1 nM | EC50 ([1]; Table 2): 3.1 ± 0.5 nM | EC50 ([2]; Table 2): 10 ± 6 nM | EC50 ([6]; Table 2): 80 ± 30 nM | EC50 at 72 h ([3]; Table 2, 72 h of treatment): 140 ± 50 nM | EC50 ([4]; Table 2): 19 ± 6 nM

CC(=O)OC[C@@]1(C)C2CC[C@]3(C)[C@H](CC=C4[C@@H]5[C@@H](C)[C@H](C)CC[C@]5(C(=O)N5CCCN(C(=O)c6ccccc6-c6c7ccc(=[N+](C)C)cc-7oc7cc(N(C)C)ccc67)CCC5)CC[C@]43C)[C@@]2(C)C[C@@H](OC(C)=O)[C@@H]1OC(C)=O (stereo partly drawn) [compound 16, (2α,3β,4α)-9-[2-[{4-(2α,3β,23-Tris(Acetyloxy)-urs-12-en-28-oyl)-1,5-Diazocan-1-Yl]Carbonyl}Phenyl]-3,6-Bis(Dimethylamino)-Xanthylium Chloride]
EC50 ([5]; Table 2): 70 ± 10 nM | EC50 ([1]; Table 2): 6 ± 1 nM | EC50 ([2]; Table 2): 50 ± 20 nM | EC50 ([6]; Table 2): 500 ± 200 nM | EC50 at 72 h ([3]; Table 2, 72 h of treatment): 400 ± 90 nM | EC50 ([4]; Table 2): 50 ± 10 nM
